Read-outs that look alike come from different tables or passages of the source.
Legend:
[1] = Chronic DIO Mouse, second study (food intake, body weight, insulin tolerance test, glucose tolerance test, plasma insulin, fed blood glucose); assay type: in vivo; conditions: DIO mice
Method: (§1) Male 14-20-week old diet-induced obese mice were ordered from Taconic. Mice were started on a 60% fat diet (D12492, Research Diets, New Brunswick, N.J.) at 6 weeks of age. Mice were single-housed.
(§2) Test compounds were formulated in 10% PEG400 and 10% solutol. Test compounds were administered by oral gavage (5 ml kg^−1).
(§3) The test compound was formulated in 10% PEG400 and 10% solutol. DIO mice received vehicle, test compound (@ 1, 3 and 10 mg/kg) daily for 26 days. At the end of the experiment, the mice were euthanized and blood and tissues were collected.
Body weight and food weight (food intake) were monitored daily for days 1-5 and twice weekly thereafter. Fed blood glucose was measured weekly.
An insulin tolerance test (0.5 U/kg Humulin, ip) was performed on day 19 after a 4 hour food removal. Blood glucose was measured at 0, 15, 30, 60 and 120 minutes after insulin. […] Blood glucose was measured at 0, 30, 60 and 120 minutes after glucose challenge.
Blood glucose was measured from the tail vein with a Lifescan glucometer. Plasma insulin was measured with an ELISA or HTRF kit (Cisbio). Plasma parameters were measured with an Olympus clinical chemistry analyzer.
In a second study, Compound #44 was tested according to the procedure as described above, with results as listed in Tables BIO-5A through 5G, below.

[2] = Chronic DIO Mouse, first study: plasma and brain concentrations; assay type: in vivo; conditions: male, DIO mice, 2 Hours Post Dose, Day 16, (Std Dev)
Method: as §1, §2, §3
Compound #44 was tested according to the procedure as described above, with results as listed in Table BIO-4A through Table BIO4-G, below.

concentration at 2 h ([2]; brain, 1 mg/kg daily oral, read-out: Brain concentration): 59.4 ng/g
concentration at 2 h ([2]; brain, 3 mg/kg daily oral, read-out: Brain concentration): 114 ng/g
concentration at 2 h ([2]; brain, 10 mg/kg daily oral, read-out: Brain concentration): 244 ng/g
concentration at 2 h ([2]; plasma, 1 mg/kg daily oral, read-out: Plasma concentration): 0.031 µg/mL
concentration at 2 h ([2]; plasma, 3 mg/kg daily oral, read-out: Plasma concentration): 1.51 µg/mL
concentration at 2 h ([2]; plasma, 10 mg/kg daily oral, read-out: Plasma concentration): 4.44 µg/mL
SMILES: O=c1cc(NC2CCN(S(=O)(=O)C(F)(F)F)CC2)c2cc(C(c3ccc(Cl)cc3)c3ccc(Cl)cc3)ccc2[nH]1 [Compound #44, 6-(bis(4-chlorophenyl)methyl)-4-(1-(trifluoromethylsulfonyl)piperidin-4-ylamino)quinolin-2(1H)-one]
Insulin Tolerance Test, Blood Glucose AUC ([1]; 0.3 mg/kg): 20233.13 mg·min/dL
Intraperitoneal Glucose Tolerance Test Blood Glucose AUC ([1]; 0.3 mg/kg): 21550.00 mg·min/dL
Plasma Insulin (Std Err) ([1]; 0.3 mg/kg): 3.89 (0.31) ng/mL
Intraperitoneal Glucose Tolerance Test Mean Blood Glucose ([1]; 0.3 mg/kg, 0 min after glucose): 155.44 mg/dL
Insulin Tolerance Test, Mean Blood Glucose ([1]; 0.3 mg/kg, 0 min after insulin): 185.00 mg/dL
Insulin Tolerance Test, Mean Blood Glucose ([1]; 0.3 mg/kg, 15 min after insulin): 172.38 mg/dL
Intraperitoneal Glucose Tolerance Test Mean Blood Glucose ([1]; 0.3 mg/kg, 30 min after glucose): 204.33 mg/dL
Insulin Tolerance Test, Mean Blood Glucose ([1]; 0.3 mg/kg, 30 min after insulin): 164.13 mg/dL
Intraperitoneal Glucose Tolerance Test Mean Blood Glucose ([1]; 0.3 mg/kg, 60 min after glucose): 187.67 mg/dL
Insulin Tolerance Test, Mean Blood Glucose ([1]; 0.3 mg/kg, 60 min after insulin): 169.38 mg/dL
Intraperitoneal Glucose Tolerance Test Mean Blood Glucose ([1]; 0.3 mg/kg, 120 min after glucose): 154.78 mg/dL
Insulin Tolerance Test, Mean Blood Glucose ([1]; 0.3 mg/kg, 120 min after insulin): 165.13 mg/dL
Fed Blood Glucose (Std Err) ([1]; 0.3 mg/kg, Day 0): 165.4 (8.16) mg/dL
Mean Body Weight ([1]; 0.3 mg/kg, Day 1): 40.78 Grams
Mean Body Weight ([1]; 0.3 mg/kg, Day 2): 40.87 Grams
Mean Daily Food Intake ([1]; 0.3 mg/kg, Day 2): 2.51 Grams
Mean Body Weight ([1]; 0.3 mg/kg, Day 3): 40.77 Grams
Mean Daily Food Intake ([1]; 0.3 mg/kg, Day 3): 2.92 Grams
Mean Body Weight ([1]; 0.3 mg/kg, Day 4): 40.33 Grams
Mean Daily Food Intake ([1]; 0.3 mg/kg, Day 4): 2.76 Grams
Mean Body Weight ([1]; 0.3 mg/kg, Day 5): 40.53 Grams
Mean Daily Food Intake ([1]; 0.3 mg/kg, Day 5): 2.64 Grams
Mean Body Weight ([1]; 0.3 mg/kg, Day 8): 40.87 Grams
Mean Daily Food Intake ([1]; 0.3 mg/kg, Day 8): 2.80 Grams
Mean Body Weight ([1]; 0.3 mg/kg, Day 10): 41.06 Grams
Mean Daily Food Intake ([1]; 0.3 mg/kg, Day 10): 2.81 Grams
Mean Body Weight ([1]; 0.3 mg/kg, Day 11): 41.61 Grams
Mean Daily Food Intake ([1]; 0.3 mg/kg, Day 11): 2.68 Grams
Fed Blood Glucose (Std Err) ([1]; 0.3 mg/kg, Day 18): 161.22 (6.29) mg/dL
Insulin Tolerance Test, Blood Glucose AUC ([1]; 1 mg/kg): 21698.33 mg·min/dL
Intraperitoneal Glucose Tolerance Test Blood Glucose AUC ([1]; 1 mg/kg): 22102.50 mg·min/dL
Plasma Insulin (Std Err) ([1]; 1 mg/kg): 3.12 (0.64) ng/mL
Intraperitoneal Glucose Tolerance Test Mean Blood Glucose ([1]; 1 mg/kg, 0 min after glucose): 156.60 mg/dL
Insulin Tolerance Test, Mean Blood Glucose ([1]; 1 mg/kg, 0 min after insulin): 181.70 mg/dL
Insulin Tolerance Test, Mean Blood Glucose ([1]; 1 mg/kg, 15 min after insulin): 193.89 mg/dL
Intraperitoneal Glucose Tolerance Test Mean Blood Glucose ([1]; 1 mg/kg, 30 min after glucose): 225.20 mg/dL
Insulin Tolerance Test, Mean Blood Glucose ([1]; 1 mg/kg, 30 min after insulin): 170.56 mg/dL
Intraperitoneal Glucose Tolerance Test Mean Blood Glucose ([1]; 1 mg/kg, 60 min after glucose): 185.50 mg/dL
Insulin Tolerance Test, Mean Blood Glucose ([1]; 1 mg/kg, 60 min after insulin): 182.78 mg/dL
Intraperitoneal Glucose Tolerance Test Mean Blood Glucose ([1]; 1 mg/kg, 120 min after glucose): 155.00 mg/dL
Insulin Tolerance Test, Mean Blood Glucose ([1]; 1 mg/kg, 120 min after insulin): 179.40 mg/dL
Fed Blood Glucose (Std Err) ([1]; 1 mg/kg, Day 0): 170.80 (5.99) mg/dL
Mean Body Weight ([1]; 1 mg/kg, Day 1): 40.60 Grams
Mean Body Weight ([1]; 1 mg/kg, Day 2): 40.78 Grams
Mean Daily Food Intake ([1]; 1 mg/kg, Day 2): 2.84 Grams
Mean Body Weight ([1]; 1 mg/kg, Day 3): 40.85 Grams
Mean Daily Food Intake ([1]; 1 mg/kg, Day 3): 2.79 Grams
Mean Body Weight ([1]; 1 mg/kg, Day 4): 40.36 Grams
Mean Daily Food Intake ([1]; 1 mg/kg, Day 4): 2.45 Grams
Mean Body Weight ([1]; 1 mg/kg, Day 5): 40.42 Grams
Mean Daily Food Intake ([1]; 1 mg/kg, Day 5): 2.49 Grams
Mean Body Weight ([1]; 1 mg/kg, Day 8): 40.16 Grams
Mean Daily Food Intake ([1]; 1 mg/kg, Day 8): 2.63 Grams
Mean Body Weight ([1]; 1 mg/kg, Day 10): 40.73 Grams
Mean Daily Food Intake ([1]; 1 mg/kg, Day 10): 2.67 Grams
Mean Body Weight ([1]; 1 mg/kg, Day 11): 40.74 Grams
Mean Daily Food Intake ([1]; 1 mg/kg, Day 11): 2.57 Grams
Fed Blood Glucose (Std Err) ([1]; 1 mg/kg, Day 18): 151.20 (6.14) mg/dL
Insulin Tolerance Test, Blood Glucose AUC ([1]; 3 mg/kg): 19435.83 mg·min/dL
Intraperitoneal Glucose Tolerance Test Blood Glucose AUC ([1]; 3 mg/kg): 20854.50 mg·min/dL
Plasma Insulin (Std Err) ([1]; 3 mg/kg): 1.74 (0.14) ng/mL
Intraperitoneal Glucose Tolerance Test Mean Blood Glucose ([1]; 3 mg/kg, 0 min after glucose): 141.30 mg/dL
Insulin Tolerance Test, Mean Blood Glucose ([1]; 3 mg/kg, 0 min after insulin): 161.10 mg/dL
Insulin Tolerance Test, Mean Blood Glucose ([1]; 3 mg/kg, 15 min after insulin): 179.67 mg/dL
Intraperitoneal Glucose Tolerance Test Mean Blood Glucose ([1]; 3 mg/kg, 30 min after glucose): 224.30 mg/dL
Insulin Tolerance Test, Mean Blood Glucose ([1]; 3 mg/kg, 30 min after insulin): 156.33 mg/dL
Intraperitoneal Glucose Tolerance Test Mean Blood Glucose ([1]; 3 mg/kg, 60 min after glucose): 174.20 mg/dL
Insulin Tolerance Test, Mean Blood Glucose ([1]; 3 mg/kg, 60 min after insulin): 167.22 mg/dL
Intraperitoneal Glucose Tolerance Test Mean Blood Glucose ([1]; 3 mg/kg, 120 min after glucose): 138.90 mg/dL
Insulin Tolerance Test, Mean Blood Glucose ([1]; 3 mg/kg, 120 min after insulin): 159.78 mg/dL
Fed Blood Glucose (Std Err) ([1]; 3 mg/kg, Day 0): 161.8 (6.57) mg/dL
Mean Body Weight ([1]; 3 mg/kg, Day 1): 40.54 Grams
Mean Body Weight ([1]; 3 mg/kg, Day 2): 40.47 Grams
Mean Daily Food Intake ([1]; 3 mg/kg, Day 2): 2.50 Grams
Mean Body Weight ([1]; 3 mg/kg, Day 3): 40.24 Grams
Mean Daily Food Intake ([1]; 3 mg/kg, Day 3): 2.41 Grams
Mean Body Weight ([1]; 3 mg/kg, Day 4): 39.39 Grams
Mean Daily Food Intake ([1]; 3 mg/kg, Day 4): 2.02 Grams
Mean Body Weight ([1]; 3 mg/kg, Day 5): 39.11 Grams
Mean Daily Food Intake ([1]; 3 mg/kg, Day 5): 2.02 Grams
Mean Body Weight ([1]; 3 mg/kg, Day 8): 38.59 Grams
Mean Daily Food Intake ([1]; 3 mg/kg, Day 8): 2.13 Grams
Mean Body Weight ([1]; 3 mg/kg, Day 10): 38.48 Grams
Mean Daily Food Intake ([1]; 3 mg/kg, Day 10): 2.57 Grams
Mean Body Weight ([1]; 3 mg/kg, Day 11): 38.13 Grams
Mean Daily Food Intake ([1]; 3 mg/kg, Day 11): 2.29 Grams
Fed Blood Glucose (Std Err) ([1]; 3 mg/kg, Day 18): 142.60 (4.44) mg/dL
Insulin Tolerance Test, Blood Glucose AUC ([1]; 10 mg/kg): 16134.75 mg·min/dL
Intraperitoneal Glucose Tolerance Test Blood Glucose AUC ([1]; 10 mg/kg): 20820.00 mg·min/dL
Plasma Insulin (Std Err) ([1]; 10 mg/kg): 1.64 (0.32) ng/mL
Intraperitoneal Glucose Tolerance Test Mean Blood Glucose ([1]; 10 mg/kg, 0 min after glucose): 149.00 mg/dL
Insulin Tolerance Test, Mean Blood Glucose ([1]; 10 mg/kg, 0 min after insulin): 161.10 mg/dL
Insulin Tolerance Test, Mean Blood Glucose ([1]; 10 mg/kg, 15 min after insulin): 143.90 mg/dL
Intraperitoneal Glucose Tolerance Test Mean Blood Glucose ([1]; 10 mg/kg, 30 min after glucose): 218.50 mg/dL
Insulin Tolerance Test, Mean Blood Glucose ([1]; 10 mg/kg, 30 min after insulin): 133.60 mg/dL
Intraperitoneal Glucose Tolerance Test Mean Blood Glucose ([1]; 10 mg/kg, 60 min after glucose): 169.60 mg/dL
Insulin Tolerance Test, Mean Blood Glucose ([1]; 10 mg/kg, 60 min after insulin): 126.20 mg/dL
Intraperitoneal Glucose Tolerance Test Mean Blood Glucose ([1]; 10 mg/kg, 120 min after glucose): 146.60 mg/dL
Insulin Tolerance Test, Mean Blood Glucose ([1]; 10 mg/kg, 120 min after insulin): 136.10 mg/dL
Fed Blood Glucose (Std Err) ([1]; 10 mg/kg, Day 0): 167.9 (4.63) mg/dL
Mean Body Weight ([1]; 10 mg/kg, Day 1): 40.51 Grams
Mean Body Weight ([1]; 10 mg/kg, Day 2): 39.87 Grams
Mean Daily Food Intake ([1]; 10 mg/kg, Day 2): 2.07 Grams
Mean Body Weight ([1]; 10 mg/kg, Day 3): 39.16 Grams
Mean Daily Food Intake ([1]; 10 mg/kg, Day 3): 1.63 Grams
Mean Body Weight ([1]; 10 mg/kg, Day 4): 38.04 Grams
Mean Daily Food Intake ([1]; 10 mg/kg, Day 4): 1.48 Grams
Mean Body Weight ([1]; 10 mg/kg, Day 5): 37.5 Grams
Mean Daily Food Intake ([1]; 10 mg/kg, Day 5): 1.38 Grams
Mean Body Weight ([1]; 10 mg/kg, Day 8): 35.69 Grams
Mean Daily Food Intake ([1]; 10 mg/kg, Day 8): 1.64 Grams
Mean Body Weight ([1]; 10 mg/kg, Day 10): 35.08 Grams
Mean Daily Food Intake ([1]; 10 mg/kg, Day 10): 2.08 Grams
Mean Body Weight ([1]; 10 mg/kg, Day 11): 34.63 Grams
Mean Daily Food Intake ([1]; 10 mg/kg, Day 11): 2.12 Grams
Fed Blood Glucose (Std Err) ([1]; 10 mg/kg, Day 18): 144.30 (6.47) mg/dL
